According to US8741851B2, “Peptides having antimicrobial activity” (Universiti Malaya, priority 2012, dated 2014):
Where no end group is shown, it is not given here.

Columns and labels:
[1] = test system: penicilin-intermediate pneumococci; assay: broth microdilution MIC, penicilin-intermediate pneumococci; assay type: cell-based, Streptococcus pneumoniae; details: 20 isolates; for ER (effective range of MIC): 5×10^5 cfu/ml
Text: (§1) The antimicrobial peptides are thereafter tested using broth microdilution assay 5×10^5 cfu/ml against a total of 60 pneumococcal isolates (20 isolates for each penicillin-susceptible, penicilin-intermediate, and penicilin-resistant pneumococci) to determine their minimum inhibitory concentration (MIC).
(§2) The minimum inhibitory concentration of the antimicrobial peptide for Pro-His-Trp-Trp-Lys-Trp-Ala-Trp-Trp-His-His-Arg-Arg (SEQ ID NO:1), Lys-His-Trp-Trp-Lys-His-Asp-Trp-Trp-Arg-Trp-Arg-Arg (SEQ ID NO:2), and Ile-Leu-Trp-Trp-Leu-Leu-Ala-Trp-Trp-Arg-Trp-Pro-His (SEQ ID NO:3) are presented in Table 1. An effective range (ER) is defined as the range of the minimum inhibitory concentration to which the antimicrobial peptide produces detectable activity against the bacterial pathogens, whereas an effective percentage (EP) is the percentage of isolates inhibited with the effective range. From the Table 1, the SEQ ID NO:1 inhibited 95% penicillin-resistant pneumococci at the effective range of 62.5 to 250 μg/ml, 85% penicilin-intermediate pneumococci was inhibited at the effective range of 62.5 to 250 μg/ml, and 80% penicilin-susceptible pneumococci was inhibited at the effective range of 125 to 250 μg/ml. The SEQ ID NO:2 inhibited 100% of penicillin-resistant pneumococci at the effective range of 62.5 to 250 μg/ml, 95% penicilin-intermediate pneumococci was inhibited at the effective range of 125 to 250 μg/ml, and 95% penicilin-susceptible pneumococci was inhibited at the effective range of 62.5 to 250 μg/ml. […] However, the antipneumococcal activity is not detected for SEQ ID NO:3 up to the maximum concentration (250 μg/ml) tested.

K. pneumoniae = assay: antimicrobial activity against bacterial pathogens; assay type: cell-based; details: Gram-negative
[2] = test system: penicilin-susceptible pneumococci; assay: broth microdilution MIC, penicilin-susceptible pneumococci; assay type: cell-based, Streptococcus pneumoniae; details: 20 isolates; for ER (effective range of MIC): 5×10^5 cfu/ml
Text: as §1, §2

[3] = antimicrobial activity against bacterial pathogens; assay type: cell-based, Enterococcus cloacae; details: Gram-negative
Experimental: as §1
(§3) In a preferred embodiment, the SEQ ID NO:1 is weakly effective against Acinetobacter baumannii at 125 μg/ml only. The SEQ ID NO:2 has broader spectrum which effective against Acinetobacter baumannii, Staphylococcus aureus, methicillin-resistant Staphylococcus aureus, Escherichia coli, Enterococcus cloacae at 125 μg/ml respectively.

[4] = test system: penicillin-resistant pneumococci; assay: broth microdilution MIC, penicillin-resistant pneumococci; assay type: cell-based, Streptococcus pneumoniae; details: 20 isolates; for ER (effective range of MIC): 5×10^5 cfu/ml
Text: as §1, §2

Streptococcus pneumoniae = assay: broth microdilution MIC, all 60 pneumococcal isolates; assay type: cell-based; details: for Overall EP: all 60 pneumococcal isolates irrespective of penicillin susceptibility; for overall effective percentage relative to the indolicidin class of antimicrobial peptide: higher than indolicidin, irrespective of penicillin susceptibility
Text: as §1, §2

Pseudomonas aeruginosa = assay: antimicrobial activity against bacterial pathogens; assay type: cell-based; details: Gram-negative
Staphylococcus aureus = assay: antimicrobial activity against bacterial pathogens; assay type: cell-based; details: Gram-positive
Experimental: as §1, §3

Escherichia coli = assay: antimicrobial activity against bacterial pathogens; assay type: cell-based; details: Gram-negative
Experimental: as §1, §3

Acinetobacter baumannii = assay: antimicrobial activity against bacterial pathogens; assay type: cell-based; details: Gram-negative
Experimental: as §1, §3

[5] = test system: methicillin-resistant Staphylococcus aureus; assay: antimicrobial activity against bacterial pathogens; assay type: cell-based; details: Gram-positive
Experimental: as §1, §3

Citrobacter spp. = assay: antimicrobial activity against bacterial pathogens; assay type: cell-based; details: Gram-negative

Sequence | EP (effective percentage, isolates inhibited within ER) [1] | ER (effective range of MIC) [1] | antimicrobial activity (inhibitory concentration) against K. pneumoniae (K. pneumoniae) | EP (effective percentage, isolates inhibited within ER) [2] | ER (effective range of MIC) [2] | antimicrobial activity (inhibitory concentration) against E. cloacae [3] | EP (effective percentage, isolates inhibited within ER) [4] | ER (effective range of MIC) [4] | Overall EP (Streptococcus pneumoniae) | antimicrobial activity (inhibitory concentration) against P. aeruginosa (Pseudomonas aeruginosa) | antimicrobial activity (inhibitory concentration) against S. aureus (Staphylococcus aureus) | antimicrobial activity (inhibitory concentration) against E. coli (Escherichia coli) | antimicrobial activity (inhibitory concentration) against A. baumannii (Acinetobacter baumannii) | antimicrobial activity (inhibitory concentration) against methicillin-resistant S. aureus [5] | antimicrobial activity (inhibitory concentration) against Citrobacter spp. (Citrobacter spp.) | antipneumococcal activity (Streptococcus pneumoniae; up to the maximum concentration (250 μg/ml) tested) | overall effective percentage relative to the indolicidin class of antimicrobial peptide (Streptococcus pneumoniae)
ILWWKWAWWRWRR [reference compound] | 30% | 125 to 250 µg/mL | >250 µg/mL | 65% | 31.25 to 250 µg/mL | 125 µg/mL | 45% | 62.5 to 250 µg/mL | 46.7% | >250 µg/mL | 62.5 µg/mL | 250 µg/mL | 125 µg/mL | 31.25 µg/mL | 62.5 µg/mL |  | 
ILWWLLAWWRWPH [SEQ ID NO:3] | 0% | >250 µg/mL | >250 µg/mL | 0% | >250 µg/mL | >250 µg/mL | 0% | >250 µg/mL | 0% | >250 µg/mL | 7.81 µg/mL | >250 µg/mL | >250 µg/mL | >250 µg/mL | >250 µg/mL | not detected | 
KHWWKHDWWRWRR [SEQ ID NO:2] | 95% | 125 to 250 µg/mL | >250 µg/mL | 95% | 62.5 to 250 µg/mL | 125 µg/mL | 100% | 62.5 to 250 µg/mL | 96.7% | 62.5 µg/mL | 125 µg/mL | 125 µg/mL | 125 µg/mL | 125 µg/mL | 31.25 µg/mL |  | approximately two fold
PHWWKWAWWHHRR [SEQ ID NO:1] | 85% | 62.5 to 250 µg/mL | >250 µg/mL | 80% | 125 to 250 µg/mL | >250 µg/mL | 95% | 62.5 to 250 µg/mL | 86.7% | >250 µg/mL | >250 µg/mL | >250 µg/mL | 125 µg/mL | >250 µg/mL | >250 µg/mL |  | approximately two fold
